In experiment [1] the test system is dopamine uptake, rat striatal synaptosomes. In words: Inhibition of 3H-Dopamine Uptake in Rat Striatal Synaptosomes. The conditions noted are these: 3H-DA 50 nM, read-out: D: Inhibition of dopamine uptake, IC50. It is filed as biochemical, rat (male Wistar). The protocol: (D) Inhibition of ^3 H-Dopamine Uptake in Rat Striatal Synaptosomes
This assay is used to show differential drug effects on dopamine uptake versus norepinephrine uptake and to identify therapeutic agents for diseases where the potentiation of dopaminergic activity may be helpful (e.g. Parkinson's Disease).
(§1) A. Animals: Male CR Wistar Rats (100-125 g).
The final desired concentration of ^3 H-DA in the assay is 50 nM. The dilution factor is 0.9. Therefore, the KHBB is made up to contain 55.5 nM [^3 H]-5DA.
5. For most assays, a 1 mM stock solution of the test compound is made up in a suitable solvent and serially diluted such that the final concentration in the assay ranges from 2×10^-8 to 2×10^-5 M. Seven concentrations are used for each assay. Higher or lower concentrations may be used depending on the potency of the compound.
Male Wistar rats are decapitated and the brain rapidly removed. Corpora striata are rapidly removed, weighed and homogenized in 9 volumes of ice-cold 0.32 M sucrose using a Potter-Elvejhem homogenizer. Homogenization should be done with 4-5 up and down strokes at medium speeds to minimize synaptosome lysis. The homogenate is centrifuged at 1000 g for 10 min. at 0-4° C. The supernatant (S1) is decanted and is used for uptake experiments.
(§2) Tubes are incubated at 37° C. under a 95% O2 /5% CO2 atmosphere for 5 minutes. For each assay, 3 tubes are incubated with 20 μl of vehicle at 0° C. in an ice bath. After incubation all tubes are immediately centrifuged at 4000 g for 10 minutes. The supernatant fluid is aspirated and the pellets dissolved by adding 1 ml of solubilizer (Triton X-100+50% EtOH, 1:4 v/v). The tubes are vigorously vortexed, decanted into scintillation vials, and counted in 10 ml of Liquiscint scintillation counting cocktail. Active uptake is the difference between cpm at 37° C. and 0° C. The percent inhibition at each drug concentration is the mean of three determinations. IC50 values are derived from log-probit analysis.

In experiment [2] the test system is norepinephrine uptake, rat whole brain or hypothalamic synaptosomes. The experiment in a line: Inhibition of [3H]-Norepinephrine Uptake in Rat Whole Brain or Hypothalamic Synaptosomes. The settings on record: [3H]-NE 50 nM, read-out: E: Inhibition of norepinephrine uptake, IC50. It is filed as biochemical, rat (male Wistar). The protocol:
(E) Inhibition of [^3 H]-Norepinephrine Uptake in Rat Whole Brain or Hypothalamic Synaptosomes
This assay is used as a biochemical screen for potential antidepressants which block norepinephrine uptake.
A. Animals: Male CR Wistar rats (100-125 g).
The final desired concentration of [^3 H]-NE in the assay is 50 nM. The dilution factor is 0.8.
5. For most assays, a 1 mM stock solution of the test compound is made up in a suitable solvent and serially diluted such that the final concentration in the assay ranges from 2×10^-8 to 2×10^-5 M. Seven concentrations are used for each assay.
Male Wistar rats are decapitated and the brain rapidly removed. Either whole brain minus cerebella or hypothalamus is weighed and homogenized in 9 volumes of ice-cold 0.32 M sucrose using a Potter-Elvejhem homogenizer. Homogenization should be done with 4-5 up and down strokes at medium speeds to minimize synaptosome lysis. The homogenate is centrifuged at 1000 g for 10 min. at 0-4° C. The supernatant (S1) is decanted and is used for uptake experiments.
as §2

Experiment [3] relates to serotonin uptake, rat whole brain synaptosomes. The experiment in a line: Inhibition of [3H]-Serotonin Uptake in Rat Whole Brain Synaptosomes. It is filed as biochemical, rat (male Wistar). The conditions noted are these: [3H]-5HT 50 nM, read-out: C: Inhibition of serotonin uptake, IC50. The protocol: (C) Inhibition of [^3 H]-Serotonin Uptake in Rat Whole Brain Synaptosomes
as §1
The final desired concentration of ^3 H-5HT in the assay is 50 nM. The dilution factor is 0.8.
5. For most assays, a 1 mM solution of the test compound is made up in suitable solvent and serially diluted such that the final concentration in the assay ranges from 2×10^-8 to 2×10^-5 M. Seven concentrations are used for each assay.
Male Wistar rats are decapitated and the brain rapidly removed. Whole brain minus cerebella is weighed and homogenized in 9 volumes of ice-cold 0.32 M sucrose using a Potter-Elvejhem homogenizer. Homogenization should be done with 4-5 up and down strokes at medium speeds to minimize synaptosome lysis. The homogenate is centrifuged at 1000 g for 10 min. at 0-4° C. The supernatant (S1) is decanted and is used for uptake experiments.
as §2, with “(Tritor.” for “(Triton”

Experiment [4] deals with T1, 5HT1A receptor (Rattus norvegicus, UniProt P19327).
T1 construct: Hippocampi are removed, weighed and homogenized in 20 volumes of 0.05 M Tris buffer; from tissue; host or cells: rat hippocampus membranes (male Wistar)
T1 sequence (P19327 1-422): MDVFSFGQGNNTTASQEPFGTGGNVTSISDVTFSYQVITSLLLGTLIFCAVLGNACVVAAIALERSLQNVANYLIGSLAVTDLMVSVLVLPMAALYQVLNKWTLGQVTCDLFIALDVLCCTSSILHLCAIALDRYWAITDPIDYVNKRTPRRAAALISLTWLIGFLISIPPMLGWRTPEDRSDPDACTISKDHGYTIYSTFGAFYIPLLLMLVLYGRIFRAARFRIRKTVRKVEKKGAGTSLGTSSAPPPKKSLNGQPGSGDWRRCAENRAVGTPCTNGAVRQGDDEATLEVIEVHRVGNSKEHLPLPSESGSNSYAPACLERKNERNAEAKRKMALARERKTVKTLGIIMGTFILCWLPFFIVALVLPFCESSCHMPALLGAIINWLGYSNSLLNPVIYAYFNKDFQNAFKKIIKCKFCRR
The experiment in a line: [3H]DPAT Binding to Serotonin Receptors of 5HT1A Type. The conditions noted are these: [3H]DPAT 0.5 nM, rat hippocampal membranes. On the set-up: species or system rat (male Wistar, hippocampus).
Description: The purpose of this assay is to determine the affinity of test compounds for the 5HT1A receptor in the brain.
Serotonin creatinine sulfate. 0.5 mM stock solution is made up in 0.01 N HCl and 20 μl added to 3 tubes for determination of nonspecific binding (final concentration=10 μM).
Test Compounds. For most assays, a 1 mM stock solution is made up in a suitable solvent and serially diluted, such that the final concentration in the assay ranges from 2×10^-5 to 2×10^-8 M. Seven concentrations are used for each assay.
Male Wistar rats are sacrificed by decapitation. Hippocampi are removed, weighed and homogenized in 20 volumes of 0.05 M Tris buffer, pH 7.7. The homogenate is centrifuged at 48,000 g for 10 minutes and the supernatant is discarded. […]
Tubes are incubated for 15 minutes at 25° C. […] The filters are then placed into scintillation vials with 10 ml of Liquiscint scintillation cocktail and counted.
Specific binding is defined as the difference between total binding and binding in the presence of 10 μM 5HT. IC50 values are calculated from the percent specific binding at each drug concentration. […]
Tubes are incubated for 15 minutes at 25° C. […] The filters are then placed into scintilltion vials with 10 ml of Liquiscint scintillation cocktail and counted. […] IC50 values are calculated from the percent specific binding at each drug concentration.

Experiment [5] has as its target T2, 5HT3 receptor (Rattus norvegicus, UniProt P35563).
T2 sequence (P35563 24-483): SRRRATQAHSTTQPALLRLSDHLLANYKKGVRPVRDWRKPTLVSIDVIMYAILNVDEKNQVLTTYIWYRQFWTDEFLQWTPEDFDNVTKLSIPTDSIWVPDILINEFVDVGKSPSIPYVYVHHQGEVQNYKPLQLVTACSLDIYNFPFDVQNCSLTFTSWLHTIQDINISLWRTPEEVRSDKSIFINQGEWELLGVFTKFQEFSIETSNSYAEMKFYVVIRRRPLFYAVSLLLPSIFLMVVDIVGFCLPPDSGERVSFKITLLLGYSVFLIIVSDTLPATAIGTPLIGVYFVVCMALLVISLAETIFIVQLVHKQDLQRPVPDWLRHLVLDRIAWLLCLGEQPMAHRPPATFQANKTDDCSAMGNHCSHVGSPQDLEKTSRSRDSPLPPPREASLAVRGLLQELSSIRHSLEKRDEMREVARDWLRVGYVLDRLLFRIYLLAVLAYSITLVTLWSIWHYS
The experiment in a line: biochemical. It is filed as binding, rat (male Wistar, entorhinal cortex). Here is the method:
The homogenate is centrifuged at 48,000 g for 15 minutes at 4° C.
The filters are dried and counted in 10 ml of liquid scintillation cocktail.

For experiment [6], the system named is rats (schedule-induced polydipsia). The experiment in a line: Schedule-Induced Polydipsia in Rats. It is filed as in vivo, rat (male Wistar). The settings on record: i.p., daily; rats tested once a week. The source says:
Schedule-Induced Polydipsia in Rats
Food deprived rates exposed to a fixed-interval feeding schedule and allowed free access to water develop an excessive drinking behavior known as polydipsia. This schedule-induced polydipsia (SIP) cannot be explained in terms of a physiological deficit due to water deprivation. Furthermore,it offers no benefit or reward to the rat (1). Just as SIP involves the exaggeration of the normal drinking behavior, the compulsive symptoms of obsessive-compulsive disorder (OCD) can be considered an exaggeration of normal human behaviors.
Male Wistar rats (Charles River) weighing 180-220 grams were individually housed and maintained in accordance with the "NIH Guide to Care and Use of Laboratory Animals" (National Institute of Health Care Publications, No. 85-23, revised 1985) with a 12 hour light; 12 hour dark cycle and allowed free access to water. The rats were placed on a restricted diet which maintained 80% of their free feeding body weight. To induce polydipsia, rats were placed in operant chambers housed in sound attenuated boxes where a pellet dispenser automatically dispensed two 45 mg (Noyes) pellets on a fixed-interval 60 second (FI-60 sec.) schedule over a 150 minute test session. Water was available at all times in the operant chambers. After four weeks (Monday through Friday) of exposure to the FI-60 sec. feeding schedule, approximately 80% of the rats met a pre-determined criterion for water consumption (greater than 60 mls of water per session) and were considered polydipsic. Rats (N=8) were administered, intraperitoneally (IP), vehicle or the appropriate compound daily. Once dosing commenced, the rats were tested in the operant chambers once a week to assess SIP.
Compounds were either dissolved or suspended in distilled water plus a drop of Tween 80 and injected IP in a dosage volume of 1 ml/kg. The final volume was prepared to account for salt content and the dosage was expressed as 100% base.

Experiment [7] concerns norepinephrine uptake (active transport system). The conditions noted are these: high-affinity, sodium dependent active transport system; literature; read-out: Km (NE uptake); cited from earlier work.
The mark [8] stands for this setting: [3H]-GR65630 0.4 nM, rat entorhinal cortex, read-out: B: 5HT3 receptor binding, IC50.

What is called IC50 is the point on the concentration scale where inhibition reaches its midpoint. As a reminder, the Km is the substrate concentration at which the rate is half of its maximum.

The structures appear in SMILES notation. Structures can show the parent of a compound that is named as a salt. Where two headings read alike, the source gives them in different places.

On to `CCCN(c1ccncc1)c1cc2ccccc2s1` [2-(Propyl-4-pyridinylamino)benzo[b]thiophene hydrochloride], for which the half-maximal inhibitory concentration (IC50) in experiment [1] turned out to be 91 nM; in experiment [2], 55 nM; in experiment [3] it was 240 nM.

With `c1ccc2c(Nc3ccncc3)c[nH]c2c1` [3-(4-pyridinylamino)-1H-indole], the IC50 in experiment [2] was 1000 nM; in experiment [3] it was 14500 nM; in experiment [4], 6400 nM; in experiment [5] (setting [8]) it was 5500 nM.

`CC(C)CN(c1ccncc1)c1csc2cc(C(F)(F)F)ccc12.Cl` [3-[(2-Methylpropyl)(4-pyridinylamino)]-6-trifluoromethylbenzo[b]thiophene hydrochloride]: the “inhibition of SIP (schedule-induced polydipsia), active dose” value (from here on “inhibition of SIP”) in experiment [6] is on record as “Active at 15”.

Turning to `CC(C)CN(c1ccncc1)c1csc2cc(Cl)ccc12.Cl` [6-Chloro3-[(2-methylpropyl)(4-pyridinyl)amino]benzo[b]thiophen hydrochloride], the “inhibition of SIP” value in experiment [6] is “Active at 15”.

Consider `CCCN(c1ccncc1)c1csc2cc(Cl)ccc12.Cl` [6-Chloro-3-(propyl-4-pyridinylamino)benzo[b]thiophene hydrochloride], for which the IC50 in experiment [1] was found to be 560 nM; in experiment [2], 210 nM; in experiment [3] it was 60 nM; in experiment [5] (setting [8]) it was 2600 nM. Besides, the “inhibition of SIP” value in experiment [6] was “Active at 30 and 15”.

Consider `CN(C)CCCN1c2ccccc2CCc2ccc(Cl)cc21` [Clomipramine, reference compound], for which the “inhibition of SIP” value in experiment [6] is listed as “Active at 5”.

In the case of `CNCCC(Oc1ccc(C(F)(F)F)cc1)c1ccccc1` (stereo not drawn) [Fluoxetine, reference compound], the “inhibition of SIP” value in experiment [6] was “Active at 5”.

As for `CN1[C@@H]2CC[C@H]1C[C@@H](OC(=O)c1cc(Cl)cc(Cl)c1)C2` [MDL 72222, reference compound], the IC50 in experiment [5] was determined as 530 nM.

`NC[C@H](O)c1ccc(O)c(O)c1` [norepinephrine]: the Km in experiment [7] is 0.1 to 1 µM.

(Values after patent publication US6022880A, “Substituted pyridylamino indoles” (Hoechst Marion Roussel, Inc., priority 1997, dated 2000).)
